Source: ChEMBL document CHEMBL1155763, “The alkaloids of Artabotrys uncinatus” (J Nat Prod, 2001)
≈ marks a conversion by molar mass, not a printed value. Calls of active or inactive are those of the source. The rule behind the calls is not given here.

Tests used:
[1] = molecular target: Prothrombin (Homo sapiens) (UniProt P00734); assay: Inhibition of thrombin-mediated conversion of fibrinogen to fibrin
HepG2 = assay: Cytotoxicity against human HepG2 cells; type: functional, cell-based
[2] = Cytotoxicity against human HepG2(2.2.15) cells; type: functional, cell-based

COC1=C[C@@]23CCN(C)[C@@H](Cc4ccc(OC)c(O)c42)C3=CC1=O
Activity [1]: inactive
IC50 (HepG2): 10.2 µg/mL (≈ 31.2 µM)
IC50 [2]: 10.4 µg/mL (≈ 31.8 µM)

COc1c2c3c(c4c1OCO4)-c1ccccc1C[C@H]3N(C(C)=O)CC2
Activity [1]: inactive
IC50 (HepG2): 9.8 µg/mL (≈ 29 µM)
IC50 [2]: 9.3 µg/mL (≈ 27.6 µM)

COc1c2c3c(c4c1OCO4)-c1ccccc1[C@@H](O)[C@H]3NCC2 [ARTABONATINE B]
Activity [1]: inactive
IC50 (HepG2): 9.1 µg/mL (≈ 29.2 µM)
IC50 [2]: 11 µg/mL (≈ 35.3 µM)

COc1ccc2c(c1)C(=O)c1nccc3cc4c(c-2c13)OCO4 [ATHEROSPERMIDINE]
Activity [1]: inactive
IC50 (HepG2): 0.8 µg/mL (≈ 2.62 µM)
IC50 [2]: 2.2 µg/mL (≈ 7.21 µM)

COC1=C[C@]23CCN(C)[C@H](Cc4cc(OC)c(O)cc42)C3=CC1=O [FLAVINANTINE]
Activity [1]: inactive
IC50 (HepG2): 9.3 µg/mL (≈ 28.4 µM)
IC50 [2]: 9.7 µg/mL (≈ 29.6 µM)

NC(=O)N1CCCC1=O [SQUAMOLONE]
Activity [1]: inactive
IC50 (HepG2): 2.8 µg/mL (≈ 21.9 µM)
IC50 [2]: 1.6 µg/mL (≈ 12.5 µM)

CC(C)=C1C=C(CN2CCCC2=O)C(=O)O1 [UNCININE]
Activity [1]: inactive
IC50 (HepG2): 6.1 µg/mL (≈ 27.6 µM)
IC50 [2]: 7.4 µg/mL (≈ 33.4 µM)
